{"source": "patent USRE38257E1", "about": "“Piperdine derivatives and hypotensives containing the same” (Ajinomoto Co., Inc., priority 1988, dated 2003)", "system": "male spontaneously hypertensive rats", "experiment": "Decrease in systolic blood pressure in spontaneously hypertensive rats after intravenous bolus injection, indirect (tail-cuff) method", "assay_type": "in vivo, rat", "settings": "for Decrease in systolic blood pressure (mmHg) time after administration (hour) 0.5: 0.5 hour after administration; for Decrease in systolic blood pressure (mmHg) time after administration (hour) 4: 4 hours after administration", "method": "As test animals, four male spontaneously hypertensive rats (weight 400 to 440 g) that were sufficiently adapted for feeding and in which hypertension was confirmed were used.\nPhysiological saline aqueous solution containing 2.5% Nicolle and 2.5% ethanol of sample was intravenously administered by bolus injection at a dose of 1 ml per 1 kg of body weight. Systolic blood pressure after administration was measured by the indirect (tail-cuff) method.", "data": [{"compound": "Cl.O=C(CCCN1CCC(=C2c3ccccc3C=Cc3ccccc32)CC1)N1CCC(O)CC1", "note": "[Example 216, 1-(4-(4-(5H-Dibenzo[a,d]cyclohepten-5-ylidene)-1-piperidinyl)butanoyl)-4-hydroxypiperidine hydrochloride]", "values": [{"measurement": "Decrease in systolic blood pressure (mmHg) time after administration (hour) 0.5", "setting": "dose 3 mg/kg i.v. bolus", "result": "−2", "unit": "mmHg"}, {"measurement": "Decrease in systolic blood pressure (mmHg) time after administration (hour) 4", "setting": "dose 3 mg/kg i.v. bolus", "result": "−27", "unit": "mmHg"}]}, {"compound": "C1=Cc2ccccc2C(=C2CCN(Cc3ccncc3)CC2)c2ccccc21.Cl.Cl", "note": "[Example 163, 4-(5H-Dibenzo[a,d]cyclohepten-5-ylidene)-1-(4-Picolyl)piperidine dihydrochloride]", "values": [{"measurement": "Decrease in systolic blood pressure (mmHg) time after administration (hour) 0.5", "setting": "dose 10 mg/kg i.v. bolus", "result": "−1", "unit": "mmHg"}, {"measurement": "Decrease in systolic blood pressure (mmHg) time after administration (hour) 4", "setting": "dose 10 mg/kg i.v. bolus", "result": 4, "unit": "mmHg"}]}, {"compound": "COc1cccc(CCCN2CCC(=C3c4ccccc4C=Cc4ccccc43)CC2)c1OC.Cl", "note": "[Example 286, 3-(4-(5H-Dibenzo[a,d]cyclohepten-5-ylidene)-1-piperidinyl)-1-(2,3-dimethoxyphenyl)propane hydrochloride]", "values": [{"measurement": "Decrease in systolic blood pressure (mmHg) time after administration (hour) 0.5", "setting": "dose 10 mg/kg i.v. bolus", "result": "−134", "unit": "mmHg"}, {"measurement": "Decrease in systolic blood pressure (mmHg) time after administration (hour) 4", "setting": "dose 10 mg/kg i.v. bolus", "result": "−40", "unit": "mmHg"}]}, {"compound": "Cl.O=c1[nH]c2ccccc2c(=O)n1CCN1CCC(=C2c3ccccc3C=Cc3ccccc32)CC1", "note": "[Example 28]", "values": [{"measurement": "Decrease in systolic blood pressure (mmHg) time after administration (hour) 0.5", "setting": "dose 10 mg/kg i.v. bolus", "result": "−52", "unit": "mmHg"}, {"measurement": "Decrease in systolic blood pressure (mmHg) time after administration (hour) 4", "setting": "dose 10 mg/kg i.v. bolus", "result": 4, "unit": "mmHg"}]}, {"compound": "Cl.O=C1CCCCC1CCCCN1CCC(=C2c3ccccc3C=Cc3ccccc32)CC1", "note": "(stereo not shown) [Example 215, 2-(4-(4-(5H-Dibenzo[a,d]cyclohepten-5-ylidene)-1-piperidinyl)butyl)cyclohexanone hydrochloride]", "values": [{"measurement": "Decrease in systolic blood pressure (mmHg) time after administration (hour) 0.5", "setting": "dose 10 mg/kg i.v. bolus", "result": "−128", "unit": "mmHg"}, {"measurement": "Decrease in systolic blood pressure (mmHg) time after administration (hour) 4", "setting": "dose 10 mg/kg i.v. bolus", "result": "−14", "unit": "mmHg"}]}, {"compound": "COc1cc(C(C#N)(CCCN2CCC(=C3c4ccccc4C=Cc4ccccc43)CC2)C(C)C)cc(OC)c1OC.Cl", "note": "(stereo not shown) [Example 126, 5-(4-(5H-Dibenzo[a,d]cyclohepten-5-ylidene)-1-piperidinyl)-2-isopropyl-2-(3,4,5-trimethoxyphenyl)valeronitrile hydrochloride]", "values": [{"measurement": "Decrease in systolic blood pressure (mmHg) time after administration (hour) 0.5", "setting": "dose 10 mg/kg i.v. bolus", "result": "−87", "unit": "mmHg"}, {"measurement": "Decrease in systolic blood pressure (mmHg) time after administration (hour) 4", "setting": "dose 10 mg/kg i.v. bolus", "result": "−19", "unit": "mmHg"}]}, {"compound": "Cl.O=C(CCCN1CCC(=C2c3ccccc3C=Cc3ccccc32)CC1)C1CCCCC1", "note": "[Example 176, 1-Cyclohexyl-3,(4-(5H-dibenzo[a,d]cyclohepten-5-ylidene)-1-piperidinyl)propylketone hydrochloride]", "values": [{"measurement": "Decrease in systolic blood pressure (mmHg) time after administration (hour) 0.5", "setting": "dose 10 mg/kg i.v. bolus", "result": "−105", "unit": "mmHg"}, {"measurement": "Decrease in systolic blood pressure (mmHg) time after administration (hour) 4", "setting": "dose 10 mg/kg i.v. bolus", "result": "−10", "unit": "mmHg"}]}, {"compound": "COc1cccc(CN2CCC(=C3c4ccccc4CCc4ccccc43)CC2)c1.Cl", "note": "[Example 184, 4-(10,11-dihydro-5H-dibenzo[a,d]cyclohepten-5-ylidene)-1-(3-methoxybenzyl)piperidine hydrochloride]", "values": [{"measurement": "Decrease in systolic blood pressure (mmHg) time after administration (hour) 0.5", "setting": "dose 10 mg/kg i.v. bolus", "result": "−16", "unit": "mmHg"}, {"measurement": "Decrease in systolic blood pressure (mmHg) time after administration (hour) 4", "setting": "dose 10 mg/kg i.v. bolus", "result": "−4", "unit": "mmHg"}]}, {"compound": "CC(=O)Nc1ccc2c(c1)CC(CN1CCC(=C3c4ccccc4C=Cc4ccccc43)CC1)C2.Cl", "note": "(stereo not shown) [Example 334, 5′-acetylamino-2-(4-(5H-Dibenzo[a,d]cyclohepten-5-ylidene)-1-piperidinyl)methylindan hydrochloride]", "values": [{"measurement": "Decrease in systolic blood pressure (mmHg) time after administration (hour) 0.5", "setting": "dose 3 mg/kg i.v. bolus", "result": "−130", "unit": "mmHg"}, {"measurement": "Decrease in systolic blood pressure (mmHg) time after administration (hour) 4", "setting": "dose 3 mg/kg i.v. bolus", "result": "−93", "unit": "mmHg"}]}, {"compound": "COc1cc(C(=O)N2CCC(=C3c4ccccc4C=Cc4ccccc43)CC2)cc(OC)c1OC", "note": "[Example 189, 4-(5H-Dibenzo[a,d]cyclohepten-5-ylidene)-1-(3,4,5-trimethoxybenzoyl)piperidine]", "values": [{"measurement": "Decrease in systolic blood pressure (mmHg) time after administration (hour) 0.5", "setting": "dose 10 mg/kg i.v. bolus", "result": "−72", "unit": "mmHg"}, {"measurement": "Decrease in systolic blood pressure (mmHg) time after administration (hour) 4", "setting": "dose 10 mg/kg i.v. bolus", "result": "−15", "unit": "mmHg"}]}, {"compound": "Cl.Cl.Nc1ccc(CN2CCC(=C3c4ccccc4C=Cc4ccccc43)CC2)cc1", "note": "[Example 140, 1-(4-Aminobenzy)-4-(5H-Dibenzo[a,d]cyclohepten-5-ylidene)piperidine dihydrochloride]", "values": [{"measurement": "Decrease in systolic blood pressure (mmHg) time after administration (hour) 0.5", "setting": "dose 3 mg/kg i.v. bolus", "result": "−113", "unit": "mmHg"}, {"measurement": "Decrease in systolic blood pressure (mmHg) time after administration (hour) 4", "setting": "dose 3 mg/kg i.v. bolus", "result": "−101", "unit": "mmHg"}]}, {"compound": "CC(=O)Oc1cccc(C=CCN2CCC(=C3c4ccccc4C=Cc4ccccc43)CC2)c1.Cl", "note": "[Example 368, 1-(3-Acetoxycinnamyl)-4-(5H-Dibenzo[a,d]cyclohepten-5-ylidene)piperidine hydrochloride]", "values": [{"measurement": "Decrease in systolic blood pressure (mmHg) time after administration (hour) 0.5", "setting": "dose 3 mg/kg i.v. bolus", "result": "−110", "unit": "mmHg"}, {"measurement": "Decrease in systolic blood pressure (mmHg) time after administration (hour) 4", "setting": "dose 3 mg/kg i.v. bolus", "result": "−68", "unit": "mmHg"}]}, {"compound": "Cl.O=C(CCCN1CCC(=C2c3ccccc3C=Cc3ccccc32)CC1)c1ccco1", "note": "[Example 233, 4-(4-(5H-Dibenzo[a,d]cyclohepten-5-ylidene)-1-piperidinyl)-1-(2-furyl)-1-butanone hydrochloride]", "values": [{"measurement": "Decrease in systolic blood pressure (mmHg) time after administration (hour) 0.5", "setting": "dose 10 mg/kg i.v. bolus", "result": "−35", "unit": "mmHg"}, {"measurement": "Decrease in systolic blood pressure (mmHg) time after administration (hour) 4", "setting": "dose 10 mg/kg i.v. bolus", "result": "−1", "unit": "mmHg"}]}, {"compound": "1-(4-Acetylaminominocinnamyl)-4-(5H-Dibenzo[a,d]thiepiz-5-ylidene)-1-piperidine hydrochloride [Example 327]", "values": [{"measurement": "Decrease in systolic blood pressure (mmHg) time after administration (hour) 0.5", "setting": "dose 3 mg/kg i.v. bolus", "result": "−10", "unit": "mmHg"}, {"measurement": "Decrease in systolic blood pressure (mmHg) time after administration (hour) 4", "setting": "dose 3 mg/kg i.v. bolus", "result": "−43", "unit": "mmHg"}]}, {"compound": "Cl.O=C(CCN1CCC(=C2c3ccccc3C=Cc3ccccc32)CC1)NC1CCCCC1", "note": "[Example 226, N-(3,(4-(5H-Dibenzo[a,d]cyclohepten-5-ylidene)-1-piperidinyl)propanoyl)cyclohexylamine hydrochloride]", "values": [{"measurement": "Decrease in systolic blood pressure (mmHg) time after administration (hour) 0.5", "setting": "dose 10 mg/kg i.v. bolus", "result": "−131", "unit": "mmHg"}, {"measurement": "Decrease in systolic blood pressure (mmHg) time after administration (hour) 4", "setting": "dose 10 mg/kg i.v. bolus", "result": "−16", "unit": "mmHg"}]}, {"compound": "Cl.O=C(NCCN1CCCCC1=C1c2ccccc2C=Cc2ccccc21)c1ccc([N+](=O)[O-])cc1", "note": "[Example 237, N-(2-(5H-Dibenzo[a,d]cyclohepten-5-ylidene)-1-piperidinyl)ethyl-4-nitrobenzamide hydrochloride]", "values": [{"measurement": "Decrease in systolic blood pressure (mmHg) time after administration (hour) 0.5", "setting": "dose 10 mg/kg i.v. bolus", "result": "−65", "unit": "mmHg"}, {"measurement": "Decrease in systolic blood pressure (mmHg) time after administration (hour) 4", "setting": "dose 10 mg/kg i.v. bolus", "result": "−14", "unit": "mmHg"}]}, {"compound": "COC1CCCC(CCCCN2CCC(=C3c4ccccc4C=Cc4ccccc43)CC2)C1.Cl", "note": "(stereo not shown) [Example 299, 1-(1-(3-Methoxy)cyclohexyl)-4-(4-(5H-dibenzo[a,d]cyclohepten-5-ylidene)-1-piperidinyl)butane hydrochloride]", "values": [{"measurement": "Decrease in systolic blood pressure (mmHg) time after administration (hour) 0.5", "setting": "dose 10 mg/kg i.v. bolus", "result": "−134", "unit": "mmHg"}, {"measurement": "Decrease in systolic blood pressure (mmHg) time after administration (hour) 4", "setting": "dose 10 mg/kg i.v. bolus", "result": "−45", "unit": "mmHg"}]}, {"compound": "C1=Cc2ccccc2C(=C2CCN(CCCC3CCCCC3)CC2)c2ccccc21.Cl", "note": "[Example 9, 1-Cyclohexyl-3-(4-(5H-dibenzo[a,d]cyclohepten-5-ylidene)-1-piperidinyl)propane hydrochloride]", "values": [{"measurement": "Decrease in systolic blood pressure (mmHg) time after administration (hour) 0.5", "setting": "dose 10 mg/kg i.v. bolus", "result": "−91", "unit": "mmHg"}, {"measurement": "Decrease in systolic blood pressure (mmHg) time after administration (hour) 4", "setting": "dose 10 mg/kg i.v. bolus", "result": "−19", "unit": "mmHg"}]}, {"compound": "CCOC(=O)c1ccc(C=CCN2CCC(=C3c4ccccc4C=Cc4ccccc43)CC2)cc1.Cl", "note": "[Example 382, 4-(5H-Dibenzo[a,d]cyclohepten-5-ylidene)-1-(4-ethoxycarbonylcinnamyl)piperidine hydrochloride]", "values": [{"measurement": "Decrease in systolic blood pressure (mmHg) time after administration (hour) 0.5", "setting": "dose 3 mg/kg i.v. bolus", "result": "−129", "unit": "mmHg"}, {"measurement": "Decrease in systolic blood pressure (mmHg) time after administration (hour) 4", "setting": "dose 3 mg/kg i.v. bolus", "result": "−74", "unit": "mmHg"}]}, {"compound": "CC(=O)N1CCCC(CCCN2CCC(=C3c4ccccc4C=Cc4ccccc43)CC2)C1.Cl", "note": "(stereo not shown) [Example 280, 1-(n-Acetyl-3-piperidinyl)-3-(4-(5H-Dibenzo[a,d]cyclohepten-5-ylidene)-1-piperidinyl)propane hydrochloride]", "values": [{"measurement": "Decrease in systolic blood pressure (mmHg) time after administration (hour) 0.5", "setting": "dose 10 mg/kg i.v. bolus", "result": "−50", "unit": "mmHg"}, {"measurement": "Decrease in systolic blood pressure (mmHg) time after administration (hour) 4", "setting": "dose 10 mg/kg i.v. bolus", "result": "−11", "unit": "mmHg"}]}]}
